Article PMC3004370, “PI3Kα Inhibitors That Inhibit Metastasis” (Oncotarget, 2010)

What was measured:
[1] = molecular target: T1, p110α (Homo sapiens, UniProt P42336); experiment: Biochemical PI3K inhibition assay, p110α; details: for IC50: 10 μM ATP, two hours
T1 construct: His-tag; made in house; host or cells: Sf9 insect cells (baculovirus)
Procedure: PIK3CD was generously provided by Novartis Pharmaceuticals. […] Sf9 cells were lysed in a buffer containing 50 mM sodium phosphate, pH 8.0, 400 mM NaCl, 5% glycerol, 1% Triton X-100, 10 mM 2-mercaptoethanol, 1 mM orthovanadate, 10 mM imidazole, and sonicated on ice for 1 minute. Proteins were purified by adding Ni-NTA Superflow beads (Qiagen, Valencia, CA, USA) to the lysate and subsequent rolling for 30 min at 4°C. Beads were washed twice with 50 mM phosphate buffer, pH 8.0, 0.5 M NaCl, 50 mM Imidazole, 2 mM DTT and eluted in the same buffer but with 200 mM imidazole. Purified PI3K's were mixed 1:1 with glycerol and stored at -20°C.
J-series inhibitors were dissolved, serial diluted in DMSO and deposited into 96 well plates at a final DMSO concentration of 1%. We used a novel assay to determine their potency and selectivity. […] Reactions were timed after the addition of 10 μM ATP with 40 μCi/ml γ-32P-ATP (PerkinElmer, Waltham, MA, USA) and 2 mM MgCl2 (all final concentrations). The reactions were terminated after two hours by the addition of 2 N HCl and the lipids extracted with 1:1 MetOH/Chloroform. Radio-labeled phosphatidyl-inositol-3-phosphate in the extracted organic fraction was quantified after the addition of Microscint O (PerkinElmer) using a TopCount 96 well plate scintillation counter (PerkinElmer). IC50 concentrations and inhibition curves were calculated using Prism 5 (GraphPad Software, La Jolla, CA).

[2] = tested on: subcutaneous HCT116 xenograft tumors; experiment: Xenograft tumor model; format: in vivo; details: nude mice, 150 mg/kg IP daily for three weeks
Procedure: (§1) Tumor xenografts were established by injecting 5x10^6 HCT116 cells subcutaneously into the right flanks of female nude mice. Tumor volume was measured twice weekly using electronic calipers and calculated as length x width^2 x 0.5. After tumors reached an average volume of 50 mm^3, animals were treated daily with drugs at 150 mg/kg via IP injection for three weeks. Tumor phospho-Akt levels were determined following harvest on the last day of the study. Xenografts were excised, snap frozen in liquid nitrogen and pulverized with a pestle. Homogenized tissue was re-suspended in lysis buffer (Cell Signaling Technology) and protein contents normalized by Bradford assay (Bio-Rad Laboratories, Hercules, CA, USA). Western blots were performed as described above.

[3] = molecular target: T2, p110δ (Homo sapiens, UniProt O00329); experiment: Biochemical PI3K inhibition assay, p110δ; details: 10 μM ATP, two hours
T2 construct: His-tag; made in house; host or cells: Sf9 insect cells (baculovirus)
Source text: (§2) cDNA clones of PIK3CA, PIK3CB and PIK3CG were obtained from Origene (Rockville, MD, USA). PIK3CD was generously provided by Novartis Pharmaceuticals. The cDNA clones were sub-cloned into pFastBac His-Tag (Invitrogen, Carlsbad, CA, USA) and baculovirus clones were generated by the Bac-to-Bac expression system (Invitrogen). p110α, p110β and p110δ were co-expressed in Sf9 insect cells (Invitrogen) with a nSH2-iSH2 fragment of the regulatory subunit p85 comprising AA residues 322 to 600 [4]. p110γ was expressed without a regulatory subunit. Sf9 cells were lysed in a buffer containing 50 mM sodium phosphate, pH 8.0, 400 mM NaCl, 5% glycerol, 1% Triton X-100, 10 mM 2-mercaptoethanol, 1 mM orthovanadate, 10 mM imidazole, and sonicated on ice for 1 minute. Proteins were purified by adding Ni-NTA Superflow beads (Qiagen, Valencia, CA, USA) to the lysate and subsequent rolling for 30 min at 4°C. Beads were washed twice with 50 mM phosphate buffer, pH 8.0, 0.5 M NaCl, 50 mM Imidazole, 2 mM DTT and eluted in the same buffer but with 200 mM imidazole. Purified PI3K's were mixed 1:1 with glycerol and stored at -20°C.
(§3) J-series inhibitors were dissolved, serial diluted in DMSO and deposited into 96 well plates at a final DMSO concentration of 1%. We used a novel assay to determine their potency and selectivity. In brief, micelles of 2.5 μg L-a-Phosphatidylinositol and 2.5 μg 1,2-Diacyl-sn-glycero-3-phospho-L-serine were formed by sonication, mixed with the individual PI3K isoforms and added to the drug dilutions in a reaction buffer containing 10 mM HEPES, 25 mM NaCl, 0.125 μg/μl BSA, and 2 mM BME (final concentrations). Reactions were timed after the addition of 10 μM ATP with 40 μCi/ml γ-32P-ATP (PerkinElmer, Waltham, MA, USA) and 2 mM MgCl2 (all final concentrations). The reactions were terminated after two hours by the addition of 2 N HCl and the lipids extracted with 1:1 MetOH/Chloroform. Radio-labeled phosphatidyl-inositol-3-phosphate in the extracted organic fraction was quantified after the addition of Microscint O (PerkinElmer) using a TopCount 96 well plate scintillation counter (PerkinElmer). IC50 concentrations and inhibition curves were calculated using Prism 5 (GraphPad Software, La Jolla, CA).

[4] = molecular target: T3, p110β (Homo sapiens, UniProt P42338); experiment: Biochemical PI3K inhibition assay, p110β; details: 10 μM ATP, two hours
T3 construct: His-tag; made in house; host or cells: Sf9 insect cells (baculovirus)
Source text: as §2, §3

[5] = molecular target: T4, p110γ (Homo sapiens, UniProt P48736); experiment: Biochemical PI3K inhibition assay, p110γ; details: 10 μM ATP, two hours; no regulatory subunit
T4 construct: His-tag; made in house; host or cells: Sf9 insect cells (baculovirus)
Source text: as §2, §3

[6] = tested on: P-Akt in HCT116 xenografts; experiment: Intra-tumor P-Akt levels in xenografts; format: in vivo, nude mice; details: post IP injection
Procedure: as §1

[7] = tested on: phosphorylation of Akt1 and Akt2 in HCT116 cells; experiment: P-Akt western analysis in cells; format: cell-based, human; details: 6 hours, concentrations that inhibited cell growth
Procedure: Phopspho-Akt levels were assayed in HCT116 cells. 1x10^6 cells/well were seeded in six-well plates and serum starved for 2 hours in McCoy's 5A medium. Drugs were pre-mixed with complete medium containing 10% FBS and incubated with the cells for 6 hours. Cells were lysed on ice with 100 mM Tris-HCl, pH 7.0, 10% 2-mercaptoethanol, 4% SDS, 20% glycerol, 0.05% Bromophenol blue, 20 μl 1 mM NaF, 1 mM Na3VO4, and Complete Protease Inhibitor Cocktail Tablet (Roche, Nutley, NJ, USA) without EDTA and sonicated for 30 seconds. Phospho-Akt was assayed with Phospho-Akt (Ser473) antibody (#9271, Cell Signaling Technology, Danvers, MA, USA). Subsequently the membrane was stripped and incubated with Akt1 (D-17) antibody (sc-7126, Santa Cruz Biotechnology,Santa Cruz, CA, USA)) for loading control.

[8] = tested on: Intraspleenic-injected HCT116 liver and lung metastases; experiment: Intraspleenic tumor model (metastasis); format: in vivo, mice; details: 150 mg/kg IP daily, three weeks
Procedure: Intraspleenic-injected HCT116 liver and lung metastases in NOD.Cg-Prkdcscid Il2rgtm1Wjl/SzJ mice (Jackson Laboratory, Bar Harbor, ME, USA) were generated as described in Erikson et. al.. J-series compounds were solubilized in 1:1 DMSO/Cremophor EL (Sigma-Aldrich) and diluted 2.3-fold in water to a final concentration of 7.5 mg/ml. 400 μl of this formulation (150 mg/kg) was injected intraperitoneally (IP) once a day for three weeks, beginning the third day post-surgery. Mice were sacrificed after the treatment and the liver, lungs, and spleen sampled. DNA was extracted from organs with the DNeasy Blood & Tissue Kit (Qiagen). The qPCR assay used for quantification of human DNA in mouse organs has been described. All mouse protocols were designed in accordance with the NIH Guide for the Care and Use of Laboratory Animals and approved by the Institutional Animal Care and Use Committee.

T1 sequence (P42336 whole entry): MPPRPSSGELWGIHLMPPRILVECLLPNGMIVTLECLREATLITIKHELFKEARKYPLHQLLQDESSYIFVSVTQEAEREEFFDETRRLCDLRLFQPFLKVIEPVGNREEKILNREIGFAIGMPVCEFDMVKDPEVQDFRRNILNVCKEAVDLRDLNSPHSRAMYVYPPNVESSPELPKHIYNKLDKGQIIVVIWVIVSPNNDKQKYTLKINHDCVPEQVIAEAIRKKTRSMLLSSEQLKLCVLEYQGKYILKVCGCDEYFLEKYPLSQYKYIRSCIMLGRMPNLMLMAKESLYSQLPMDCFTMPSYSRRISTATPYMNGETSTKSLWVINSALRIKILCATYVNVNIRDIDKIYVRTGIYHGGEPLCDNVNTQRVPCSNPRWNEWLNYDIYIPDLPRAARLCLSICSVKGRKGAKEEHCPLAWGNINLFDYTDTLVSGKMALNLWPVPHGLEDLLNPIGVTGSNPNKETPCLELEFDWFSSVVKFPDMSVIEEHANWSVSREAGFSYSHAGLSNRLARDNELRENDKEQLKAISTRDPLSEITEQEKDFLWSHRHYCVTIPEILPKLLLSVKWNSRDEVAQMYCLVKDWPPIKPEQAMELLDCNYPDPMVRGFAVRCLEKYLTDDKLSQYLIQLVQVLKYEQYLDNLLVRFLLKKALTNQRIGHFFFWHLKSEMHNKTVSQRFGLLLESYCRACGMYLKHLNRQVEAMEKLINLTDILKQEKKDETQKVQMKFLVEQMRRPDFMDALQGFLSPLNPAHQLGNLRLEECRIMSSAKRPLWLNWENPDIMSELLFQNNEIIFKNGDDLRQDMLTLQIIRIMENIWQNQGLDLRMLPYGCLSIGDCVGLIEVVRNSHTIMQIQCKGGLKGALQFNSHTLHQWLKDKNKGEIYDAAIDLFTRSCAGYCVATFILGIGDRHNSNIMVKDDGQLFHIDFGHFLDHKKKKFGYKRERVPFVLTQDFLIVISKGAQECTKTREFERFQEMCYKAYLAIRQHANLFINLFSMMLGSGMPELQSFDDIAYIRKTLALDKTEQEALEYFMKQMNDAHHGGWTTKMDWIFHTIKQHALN
T1 sequence (P27986 322-600 partner limits assumed): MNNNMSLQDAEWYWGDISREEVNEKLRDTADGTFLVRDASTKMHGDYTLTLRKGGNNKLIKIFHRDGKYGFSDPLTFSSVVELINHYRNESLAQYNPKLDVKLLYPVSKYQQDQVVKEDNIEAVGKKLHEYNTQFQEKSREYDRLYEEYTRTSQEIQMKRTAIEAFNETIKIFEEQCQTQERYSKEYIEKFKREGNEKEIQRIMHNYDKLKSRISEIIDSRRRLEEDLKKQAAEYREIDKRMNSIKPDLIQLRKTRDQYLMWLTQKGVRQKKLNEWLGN
T4 sequence (P48736 whole entry): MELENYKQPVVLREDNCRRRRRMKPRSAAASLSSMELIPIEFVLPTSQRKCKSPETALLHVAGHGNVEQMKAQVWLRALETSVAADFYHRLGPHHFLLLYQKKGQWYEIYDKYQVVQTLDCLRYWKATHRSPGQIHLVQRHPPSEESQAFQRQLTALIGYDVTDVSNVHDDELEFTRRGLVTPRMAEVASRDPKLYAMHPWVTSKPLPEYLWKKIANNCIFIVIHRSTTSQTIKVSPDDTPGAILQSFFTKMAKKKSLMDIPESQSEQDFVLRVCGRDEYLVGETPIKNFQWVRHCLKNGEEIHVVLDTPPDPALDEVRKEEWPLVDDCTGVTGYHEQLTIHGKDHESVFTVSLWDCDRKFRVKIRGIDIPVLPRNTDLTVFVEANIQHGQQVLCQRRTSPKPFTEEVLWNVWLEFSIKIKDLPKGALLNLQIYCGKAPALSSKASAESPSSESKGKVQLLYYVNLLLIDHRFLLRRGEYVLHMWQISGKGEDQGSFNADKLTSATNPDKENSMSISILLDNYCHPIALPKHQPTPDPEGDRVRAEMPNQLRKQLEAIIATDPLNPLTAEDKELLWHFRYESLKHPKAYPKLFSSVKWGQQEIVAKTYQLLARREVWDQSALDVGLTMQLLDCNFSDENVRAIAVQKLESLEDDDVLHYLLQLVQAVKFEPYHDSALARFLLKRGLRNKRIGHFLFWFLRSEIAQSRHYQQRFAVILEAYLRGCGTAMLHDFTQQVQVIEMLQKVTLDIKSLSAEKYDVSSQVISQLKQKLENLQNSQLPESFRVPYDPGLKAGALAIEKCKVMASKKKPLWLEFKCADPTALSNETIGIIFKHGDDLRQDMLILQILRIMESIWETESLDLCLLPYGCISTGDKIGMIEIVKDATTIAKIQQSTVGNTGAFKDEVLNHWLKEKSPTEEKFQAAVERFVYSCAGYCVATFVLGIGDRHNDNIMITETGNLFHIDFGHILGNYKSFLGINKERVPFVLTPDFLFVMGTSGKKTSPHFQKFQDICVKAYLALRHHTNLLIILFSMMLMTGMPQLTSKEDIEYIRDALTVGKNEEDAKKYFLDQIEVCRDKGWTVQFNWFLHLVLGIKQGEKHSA
T3 sequence (P42338 whole entry): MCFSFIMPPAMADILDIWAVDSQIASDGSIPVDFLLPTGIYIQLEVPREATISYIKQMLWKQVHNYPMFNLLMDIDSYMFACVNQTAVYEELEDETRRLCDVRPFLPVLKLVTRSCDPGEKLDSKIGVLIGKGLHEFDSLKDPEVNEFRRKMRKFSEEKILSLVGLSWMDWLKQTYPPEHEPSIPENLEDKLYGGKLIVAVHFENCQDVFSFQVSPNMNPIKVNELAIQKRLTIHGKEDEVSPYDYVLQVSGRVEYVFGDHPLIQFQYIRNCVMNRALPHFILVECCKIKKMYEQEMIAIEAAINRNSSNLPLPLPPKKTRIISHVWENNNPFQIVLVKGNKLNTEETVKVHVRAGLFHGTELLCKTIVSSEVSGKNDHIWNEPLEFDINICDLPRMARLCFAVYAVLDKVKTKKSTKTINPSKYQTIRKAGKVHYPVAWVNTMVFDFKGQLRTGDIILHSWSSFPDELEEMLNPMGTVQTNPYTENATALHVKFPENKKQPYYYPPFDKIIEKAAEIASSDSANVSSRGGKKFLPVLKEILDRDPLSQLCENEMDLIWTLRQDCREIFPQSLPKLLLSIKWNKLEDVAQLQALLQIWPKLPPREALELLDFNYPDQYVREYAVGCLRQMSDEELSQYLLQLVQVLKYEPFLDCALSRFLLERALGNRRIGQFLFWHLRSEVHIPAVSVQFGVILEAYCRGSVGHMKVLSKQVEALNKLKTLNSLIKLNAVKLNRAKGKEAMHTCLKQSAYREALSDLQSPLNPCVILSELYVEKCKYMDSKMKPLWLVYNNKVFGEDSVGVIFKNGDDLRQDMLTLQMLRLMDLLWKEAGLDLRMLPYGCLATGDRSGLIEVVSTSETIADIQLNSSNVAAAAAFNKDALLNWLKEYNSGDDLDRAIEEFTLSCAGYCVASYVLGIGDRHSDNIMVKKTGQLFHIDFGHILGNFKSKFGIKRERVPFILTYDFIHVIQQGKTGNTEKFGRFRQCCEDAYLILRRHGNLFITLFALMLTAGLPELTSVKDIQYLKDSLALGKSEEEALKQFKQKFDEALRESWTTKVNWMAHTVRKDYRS
T3 sequence (P27986 322-600 partner limits assumed): as the sequence (P27986 322-600 partner limits assumed) above
T2 sequence (O00329 whole entry): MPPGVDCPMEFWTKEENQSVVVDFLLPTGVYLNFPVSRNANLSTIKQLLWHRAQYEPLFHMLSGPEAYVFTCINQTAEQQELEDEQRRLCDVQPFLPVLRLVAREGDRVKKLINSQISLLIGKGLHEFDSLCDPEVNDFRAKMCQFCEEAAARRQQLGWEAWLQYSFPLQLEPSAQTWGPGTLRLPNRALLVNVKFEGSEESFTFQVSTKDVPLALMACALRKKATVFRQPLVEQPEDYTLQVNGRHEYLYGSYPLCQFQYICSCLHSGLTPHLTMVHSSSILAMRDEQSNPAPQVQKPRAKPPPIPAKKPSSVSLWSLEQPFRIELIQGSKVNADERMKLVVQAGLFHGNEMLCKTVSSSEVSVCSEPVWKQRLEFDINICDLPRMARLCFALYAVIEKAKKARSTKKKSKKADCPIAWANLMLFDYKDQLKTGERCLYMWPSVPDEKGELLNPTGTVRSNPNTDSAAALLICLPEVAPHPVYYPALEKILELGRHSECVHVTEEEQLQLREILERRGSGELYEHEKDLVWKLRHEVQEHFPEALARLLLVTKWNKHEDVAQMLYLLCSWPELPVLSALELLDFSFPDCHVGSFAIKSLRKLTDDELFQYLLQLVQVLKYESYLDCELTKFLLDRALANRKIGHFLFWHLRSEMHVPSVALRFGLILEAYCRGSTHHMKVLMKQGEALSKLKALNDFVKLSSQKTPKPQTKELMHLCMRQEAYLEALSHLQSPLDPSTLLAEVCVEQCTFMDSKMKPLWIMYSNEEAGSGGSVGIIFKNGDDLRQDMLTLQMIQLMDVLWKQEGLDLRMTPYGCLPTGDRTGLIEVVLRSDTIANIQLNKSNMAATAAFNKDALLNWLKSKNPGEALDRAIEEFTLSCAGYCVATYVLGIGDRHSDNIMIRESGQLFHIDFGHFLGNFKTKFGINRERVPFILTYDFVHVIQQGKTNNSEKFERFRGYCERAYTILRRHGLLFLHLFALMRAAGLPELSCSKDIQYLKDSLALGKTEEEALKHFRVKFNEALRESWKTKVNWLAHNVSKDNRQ
T2 sequence (P27986 322-600 partner limits assumed): as the sequence (P27986 322-600 partner limits assumed) above

IC50 [1] [nM]	increase of selectivity against the other three isoforms ([1]; J32 versus J27)	effect of substitution on PI3Kα potency/selectivity (in words) ([1]; SAR discussion)	IC50 [3] [nM]	IC50 [4] [nM]	IC50 [5] [nM]	increase of inhibitory activity for PI3Kα ([1]; compared to J32) [fold]	SMILES	anti-tumor activity against subcutaneous HCT116 xenograft tumors [2]	intra-tumor P-Akt levels [6]	phosphorylation of Akt1 and Akt2 (western blot) [7]	metastatic lesions in the lungs [8]	metastatic foci in the liver (histopathology) ([8]; compared to vehicle)	reduction in primary tumor burden in the spleen (real-time PCR) ([8]; compared to vehicle)	reduction of metastatic liver burden (real-time PCR) ([8]; compared to vehicle) [fold]
15	up to 8 fold	potency for PI3Kα was retained	1400	1200	620	–	CCN(/N=C/c1cnc2ccc(Br)cn12)S(=O)(=O)c1cc([N+](=O)[O-])ccc1C [J32]	Only a minor anti-tumor activity	–	–	–	–	–	–
2	–	–	26	46	73	7.5	CCN(/N=C/c1cnc2ccc(Br)cn12)S(=O)(=O)c1cc([N+](=O)[O-])c(N)cc1C [J124-I]	Only a minor anti-tumor activity	reduced up to 3 hours	inhibitory effect	–	–	–	–
4	–	–	110	130	250	–	CCN(/N=C/c1cnc2ccc(Br)cn12)S(=O)(=O)c1cc([N+](=O)[O-])c(N)cc1Cl [J128]	–	–	–	no lesions	few, if any, metastatic foci	~ 50%	9
